Measurements published in publication PMC7684686 (2020).

How the values were obtained:
[1] = tested on: F21T (DNA, G4) GGGTTAGGGTTAGGGTTAGGG; experiment: FRET melting; conditions: K+ 10 mM (KCl), Na+ 10 mM (cacodylate), Li+ 90 µM [sic]; Na-cacodylate pH 7.2; DNA 0.2 µM, LDR 5 (1 µM ligand); error ± 0.5 °C
[2] = tested on: 22AG (DNA, G4) AGGGTTAGGGTTAGGGTTAGGG; experiment: photometric titration (Specfit); conditions: K+ (25 mM K2HPO4, 70 mM KCl), K-phosphate pH 7.0, DMSO cosolvent (10% in legend, 5% in methods)
[3] = tested on: Fa2T (DNA, G4) ACAGGGGTGTGGGGACAGGGGTGTGGGG; experiment: FRET melting; conditions: K+ 10 mM (KCl), Na+ 10 mM (cacodylate), Li+ 90 µM [sic]; Na-cacodylate pH 7.2; DNA 0.2 µM, LDR 5 (1 µM ligand); error ± 0.5 °C
[4] = tested on: a2 (DNA, G4) ACAGGGGTGTGGGGACAGGGGTGTGGGG; experiment: photometric titration (Specfit); conditions: K+ (25 mM K2HPO4, 70 mM KCl), K-phosphate pH 7.0, DMSO cosolvent (10% in legend, 5% in methods)
[5] = tested on: FkrasT (DNA, G4) AGGGCGGTGTGGGAAGAGGA; experiment: FRET melting; conditions: K+ 10 mM (KCl), Na+ 10 mM (cacodylate), Li+ 90 µM [sic]; Na-cacodylate pH 7.2; DNA 0.2 µM, LDR 5 (1 µM ligand); error ± 0.5 °C
[6] = tested on: FmycT (DNA, G4) TGAGGGTGGGTAGGGTGGGTAA; experiment: FRET melting; conditions: K+ 10 mM (KCl), Na+ 10 mM (cacodylate), Li+ 90 µM [sic]; Na-cacodylate pH 7.2; DNA 0.2 µM, LDR 5 (1 µM ligand); error ± 0.5 °C
[7] = tested on: FkitT (DNA, G4) AGGGAGGGCGCTGGGAGGAGGG; experiment: FRET melting; conditions: K+ 10 mM (KCl), Na+ 10 mM (cacodylate), Li+ 90 µM [sic]; Na-cacodylate pH 7.2; DNA 0.2 µM, LDR 5 (1 µM ligand); error ± 0.5 °C

Compound | ΔTm [1] [°C] | log Kb [2] | ΔTm [3] [°C] | log Kb [4] | log Kb ([4]; overall 2:1 constant) | log Kb ([2]; overall 2:1 constant) | ΔTm [5] [°C] | ΔTm [6] [°C] | ΔTm [7] [°C]
COc1ccc2cc3[n+](cc2c1OCCn1cc(Cn2cnc4c(N)ncnc42)nn1)CCc1cc2c(cc1-3)OCO2 | 3.4 | 5.89 ± 0.07 log (K in M^-1) | −0.5 | 5.27 ± 0.08 log (K in M^-1) | 10.3 ± 0.1 log (K in M^-2) |  |  |  | 
COc1ccc2cc3[n+](cc2c1OCCCn1cc(Cn2cnc4c(N)ncnc42)nn1)CCc1cc2c(cc1-3)OCO2 | 6.2 | 5.64 ± 0.15 log (K in M^-1) |  | 5.39 ± 0.14 log (K in M^-1) | 10.6 ± 0.2 log (K in M^-2) | 10.8 ± 0.2 log (K in M^-2) |  |  | 

Next, values leading:

ΔTm [1] [°C] | log Kb [2] | ΔTm [3] [°C] | log Kb [4] | log Kb ([4]; overall 2:1 constant) | log Kb ([2]; overall 2:1 constant) | ΔTm [5] [°C] | ΔTm [6] [°C] | ΔTm [7] [°C] | Compound
9.9 | 5.09 ± 0.13 log (K in M^-1) | 0.0 |  | 11.1 ± 0.2 log (K in M^-2) | 10.8 ± 0.1 log (K in M^-2) |  |  |  | COc1ccc2cc3[n+](cc2c1OCCCCCn1cc(Cn2cnc4c(N)ncnc42)nn1)CCc1cc2c(cc1-3)OCO2
12.9 |  | 1.1 |  | 11.1 ± 0.1 log (K in M^-2) | 10.7 ± 0.1 log (K in M^-2) | 10.1 | 5.0 | 2.7 | COc1ccc2cc3[n+](cc2c1OCCCCCCn1cc(Cn2cnc4c(N)ncnc42)nn1)CCc1cc2c(cc1-3)OCO2
6.4 | 5.23 ± 0.09 log (K in M^-1) | −0.1 |  | 10.6 ± 0.3 log (K in M^-2) | 10.7 ± 0.1 log (K in M^-2) |  |  |  | COc1ccc2cc3[n+](cc2c1OCCCCn1cc(Cn2cnc4c(N)ncnc42)nn1)CCc1cc2c(cc1-3)OCO2
